Assay results from publication PMC11969009 (Nature Communications, 2025).
pEC50, pIC50, pKd: −log10 of the molar value. ≈ marks a conversion by molar mass, not a printed value. Where “and” joins values, the source holds several entries; their conditions need not be identical. Identical values can stand only once. Entries after “also recorded” stand apart in the source; their conditions may differ. Like-named read-outs stand apart in the source and are kept apart here.

Key:
[1] = tested on: SARS-CoV-2 clinical isolate VIC001; assay type: cell-based
[2] = target: T1, SARS-CoV-2 PLpro (Severe acute respiratory syndrome coronavirus 2, UniProt P0DTD1); experiment: biochemical
[3] = target: T1, SARS-CoV-2 PLpro; experiment: biochemical; assay type: binding
[4] = target: T1, SARS-CoV-2 PLpro; experiment: cell-based; assay type: cell-based
[5] = tested on: SARS-CoV-2 clinical isolate VIC001; experiment: microbe, parasite or virus in culture; assay type: cell-based
[6] = tested on: SARS-CoV-2 P2 strain; parameters: species or system C57BL/6 (WT) mice; details: mouse, in vivo
[7] = tested on: SARS-CoV-2 P21; parameters: species or system C57BL/6 (WT) mice; Macrophages: unit not given here; details: mouse, in vivo
[8] = tested on: SARS-CoV-2 P21; parameters: species or system C57BL/6 (WT) mice; details: mouse, in vivo
[9] = tested on: SARS-CoV-2 P21; parameters: species or system C57BL/6 (WT) mice; details: mouse, in vivo; remark: listed apart in the source
[10] = target: T2, CYP1A2 (Homo sapiens, UniProt P05177)
[11] = target: T3, CYP2B6 (Homo sapiens, UniProt P20813)
[12] = target: T4, CYP2C8 (Homo sapiens, UniProt P10632); details: 20 µM
[13] = target: T5, CYP2C19 (Homo sapiens, UniProt P33261)
[14] = in vivo; details: male, C57BL/6, mouse, po, 100 mg/kg
[15] = physchem; details: kinetic from dmso stock
[16] = physchem; details: pH 7.4
[17] = in vitro; details: mouse, microsomes, pH 7.4
[18] = in vitro; details: human, microsomes, pH 7.4
[19] = in vitro; details: mouse, hepatocytes, pH 7.4
[20] = in vitro; details: human, hepatocytes, pH 7.4
[21] = in vitro; details: both, CD1, mouse, plasma, pH 7.4
[22] = in vitro; details: both, human, plasma, pH 7.4
[23] = target: T6, CYP2C9 (Homo sapiens, UniProt P11712); experiment: in vitro; details: microsomes, pH 7.4
[24] = tested on: CYP3A4/5; experiment: in vitro; details: human, microsomes
[25] = tested on: CYP3A4/5; experiment: in vitro; details: human, microsomes; remark: listed apart in the source
[26] = target: hERG (Homo sapiens, UniProt Q12809); experiment: biochemical
[27] = target: T2, CYP1A2; experiment: biochemical
[28] = target: T3, CYP2B6; experiment: biochemical
[29] = target: T4, CYP2C8; experiment: biochemical
[30] = target: T6, CYP2C9; experiment: biochemical
[31] = target: T5, CYP2C19; experiment: biochemical
[32] = target: CYP2D6 (Homo sapiens, UniProt P10635); experiment: biochemical
Sequence of CYP2D6 (P10635 whole entry): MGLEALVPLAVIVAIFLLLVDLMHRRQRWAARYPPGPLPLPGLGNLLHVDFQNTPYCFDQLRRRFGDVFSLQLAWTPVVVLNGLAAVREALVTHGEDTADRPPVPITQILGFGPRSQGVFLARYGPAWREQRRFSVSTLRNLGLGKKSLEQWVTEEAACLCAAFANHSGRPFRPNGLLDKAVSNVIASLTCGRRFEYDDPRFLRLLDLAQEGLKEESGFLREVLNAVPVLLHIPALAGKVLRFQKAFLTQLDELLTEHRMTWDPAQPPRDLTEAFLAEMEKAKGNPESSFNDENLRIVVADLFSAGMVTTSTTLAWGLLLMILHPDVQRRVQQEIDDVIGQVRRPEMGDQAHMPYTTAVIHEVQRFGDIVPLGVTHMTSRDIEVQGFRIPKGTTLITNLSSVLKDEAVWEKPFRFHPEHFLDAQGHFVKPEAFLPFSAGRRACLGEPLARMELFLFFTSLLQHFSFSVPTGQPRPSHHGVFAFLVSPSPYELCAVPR

T3 sequence (P20813 whole entry): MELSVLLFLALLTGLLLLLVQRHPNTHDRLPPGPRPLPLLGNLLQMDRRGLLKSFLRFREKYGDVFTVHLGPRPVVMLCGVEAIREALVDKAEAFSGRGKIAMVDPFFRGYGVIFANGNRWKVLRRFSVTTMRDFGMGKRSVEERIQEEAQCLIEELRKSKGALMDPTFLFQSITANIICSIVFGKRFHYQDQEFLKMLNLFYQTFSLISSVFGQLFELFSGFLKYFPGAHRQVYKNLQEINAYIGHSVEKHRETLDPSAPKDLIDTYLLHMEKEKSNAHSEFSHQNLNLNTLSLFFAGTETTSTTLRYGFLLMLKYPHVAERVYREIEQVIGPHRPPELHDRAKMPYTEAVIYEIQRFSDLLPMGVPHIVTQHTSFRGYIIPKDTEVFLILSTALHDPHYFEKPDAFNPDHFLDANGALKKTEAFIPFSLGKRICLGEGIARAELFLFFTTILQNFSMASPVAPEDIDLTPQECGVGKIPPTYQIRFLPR
T5 sequence (P33261 whole entry): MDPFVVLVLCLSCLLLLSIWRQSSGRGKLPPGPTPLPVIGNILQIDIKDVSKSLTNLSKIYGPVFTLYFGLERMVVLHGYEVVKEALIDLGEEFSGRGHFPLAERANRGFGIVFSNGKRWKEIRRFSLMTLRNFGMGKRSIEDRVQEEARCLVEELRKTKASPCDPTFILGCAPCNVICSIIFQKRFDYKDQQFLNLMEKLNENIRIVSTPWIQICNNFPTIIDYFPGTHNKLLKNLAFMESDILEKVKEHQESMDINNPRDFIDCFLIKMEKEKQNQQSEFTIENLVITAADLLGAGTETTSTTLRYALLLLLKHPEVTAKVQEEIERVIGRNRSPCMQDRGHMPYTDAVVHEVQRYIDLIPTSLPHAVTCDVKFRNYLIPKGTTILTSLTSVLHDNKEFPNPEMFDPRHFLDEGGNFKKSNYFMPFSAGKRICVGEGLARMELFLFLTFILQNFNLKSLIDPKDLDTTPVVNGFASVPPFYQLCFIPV
T6 sequence (P11712 whole entry): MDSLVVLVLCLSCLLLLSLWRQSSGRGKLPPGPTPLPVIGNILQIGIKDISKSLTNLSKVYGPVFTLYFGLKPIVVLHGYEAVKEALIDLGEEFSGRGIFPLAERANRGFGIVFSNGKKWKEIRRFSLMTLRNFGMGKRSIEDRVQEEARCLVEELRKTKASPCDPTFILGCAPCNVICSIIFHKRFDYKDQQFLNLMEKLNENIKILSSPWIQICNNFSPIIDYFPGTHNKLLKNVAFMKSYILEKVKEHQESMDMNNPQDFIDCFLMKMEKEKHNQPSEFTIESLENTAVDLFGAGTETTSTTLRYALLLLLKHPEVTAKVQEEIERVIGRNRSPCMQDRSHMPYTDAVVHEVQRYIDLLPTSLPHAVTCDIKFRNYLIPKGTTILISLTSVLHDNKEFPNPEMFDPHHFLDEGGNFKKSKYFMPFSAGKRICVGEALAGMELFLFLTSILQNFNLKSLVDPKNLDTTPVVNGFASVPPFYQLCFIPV
T4 sequence (P10632 whole entry): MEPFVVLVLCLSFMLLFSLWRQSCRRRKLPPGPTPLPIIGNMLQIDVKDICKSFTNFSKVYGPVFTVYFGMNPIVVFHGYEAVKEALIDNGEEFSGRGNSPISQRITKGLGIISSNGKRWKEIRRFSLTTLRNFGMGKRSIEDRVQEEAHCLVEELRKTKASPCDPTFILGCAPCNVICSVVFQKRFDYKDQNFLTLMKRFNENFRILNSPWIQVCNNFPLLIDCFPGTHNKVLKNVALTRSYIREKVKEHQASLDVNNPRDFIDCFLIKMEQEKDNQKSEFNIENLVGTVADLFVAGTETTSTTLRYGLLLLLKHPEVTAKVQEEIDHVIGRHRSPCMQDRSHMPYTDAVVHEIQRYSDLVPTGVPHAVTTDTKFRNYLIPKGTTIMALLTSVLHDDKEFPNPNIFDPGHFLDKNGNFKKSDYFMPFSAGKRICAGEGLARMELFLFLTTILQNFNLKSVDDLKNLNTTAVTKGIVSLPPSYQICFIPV
T2 sequence (P05177 whole entry): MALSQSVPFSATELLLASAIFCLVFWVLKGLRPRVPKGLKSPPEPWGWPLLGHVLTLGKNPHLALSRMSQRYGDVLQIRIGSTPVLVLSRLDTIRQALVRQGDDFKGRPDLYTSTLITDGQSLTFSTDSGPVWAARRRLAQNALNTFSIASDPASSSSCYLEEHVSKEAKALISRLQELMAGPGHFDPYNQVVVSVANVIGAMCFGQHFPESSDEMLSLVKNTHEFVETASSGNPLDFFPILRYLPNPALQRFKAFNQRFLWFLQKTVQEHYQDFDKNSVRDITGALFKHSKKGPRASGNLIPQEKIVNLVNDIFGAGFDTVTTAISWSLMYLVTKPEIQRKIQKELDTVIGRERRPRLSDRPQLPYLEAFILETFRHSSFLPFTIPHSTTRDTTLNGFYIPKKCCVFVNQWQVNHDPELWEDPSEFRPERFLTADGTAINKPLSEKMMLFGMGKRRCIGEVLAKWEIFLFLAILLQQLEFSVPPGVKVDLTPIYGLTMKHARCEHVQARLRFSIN
Sequence of hERG (Q12809 whole entry): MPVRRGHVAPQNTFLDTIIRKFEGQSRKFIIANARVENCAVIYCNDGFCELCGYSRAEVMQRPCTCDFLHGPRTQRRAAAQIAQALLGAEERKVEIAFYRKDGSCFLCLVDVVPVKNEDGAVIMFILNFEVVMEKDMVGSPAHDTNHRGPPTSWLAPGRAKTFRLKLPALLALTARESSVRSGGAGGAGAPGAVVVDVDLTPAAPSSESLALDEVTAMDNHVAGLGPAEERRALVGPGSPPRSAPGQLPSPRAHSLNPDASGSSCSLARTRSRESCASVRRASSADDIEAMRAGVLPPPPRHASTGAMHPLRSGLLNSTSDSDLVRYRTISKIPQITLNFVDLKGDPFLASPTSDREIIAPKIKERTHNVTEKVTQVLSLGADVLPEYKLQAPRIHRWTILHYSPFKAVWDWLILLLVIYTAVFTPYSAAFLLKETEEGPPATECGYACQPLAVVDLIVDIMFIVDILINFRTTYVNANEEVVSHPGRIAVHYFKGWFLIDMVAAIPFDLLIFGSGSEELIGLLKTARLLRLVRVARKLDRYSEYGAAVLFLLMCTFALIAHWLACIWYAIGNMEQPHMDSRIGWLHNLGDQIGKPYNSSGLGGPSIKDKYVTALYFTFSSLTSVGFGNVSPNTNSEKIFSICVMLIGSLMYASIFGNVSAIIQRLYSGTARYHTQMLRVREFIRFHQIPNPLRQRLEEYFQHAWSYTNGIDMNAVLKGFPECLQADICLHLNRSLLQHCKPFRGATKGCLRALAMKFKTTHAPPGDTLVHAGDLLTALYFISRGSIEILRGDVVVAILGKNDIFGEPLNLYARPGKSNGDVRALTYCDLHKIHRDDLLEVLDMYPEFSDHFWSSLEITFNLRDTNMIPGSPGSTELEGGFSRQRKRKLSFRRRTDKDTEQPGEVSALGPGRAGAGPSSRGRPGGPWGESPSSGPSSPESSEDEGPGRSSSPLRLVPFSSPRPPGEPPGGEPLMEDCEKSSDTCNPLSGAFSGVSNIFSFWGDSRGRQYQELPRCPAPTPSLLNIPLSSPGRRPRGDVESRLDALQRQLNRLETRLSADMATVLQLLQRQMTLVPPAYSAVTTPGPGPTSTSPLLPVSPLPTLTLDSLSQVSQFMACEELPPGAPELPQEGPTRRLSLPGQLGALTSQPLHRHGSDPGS

CCC(CC)COC(=O)[C@H](C)N[P@](=O)(OC[C@H]1O[C@@](C#N)(c2ccc3c(N)ncnn23)[C@H](O)[C@@H]1O)Oc1ccccc1 [Remdesivir, remdesivir]
TCID50 [1]: 15.3

CCON=C(c1ccc2cc(OC)ccc2c1)C1CCCN(C2CCC(O)CC2)C1 (stereo not drawn) [WEHI-P8]
inhibition at 0.545 µM ([2]; Conc 0.545 µM, read-out: SARS-CoV-2 PLpro, UbRh dose-response): 96.1% | inhibition at 1.63 µM ([2]; Conc 1.63 µM, read-out: SARS-CoV-2 PLpro, UbRh dose-response): 97.9% | inhibition at 4.9 µM ([2]; Conc 4.9 µM, read-out: SARS-CoV-2 PLpro, UbRh dose-response): 100% | pIC50 ([2]; IC50 (UbRh) SARS-CoV-2 PLpro): 7.92 | inhibition at […] ([2]; read-out: SARS-CoV-2 PLpro, UbRh dose-response): 95.1% and 83.6% | pKd [3]: 8.05 | Response (RU), report points [3]: 23.2517 RU and 23.7185 RU and 25.1250 RU and 25.7597 RU and 25.8254 RU and 25.1414 RU | pEC50 [4]: 6.53 | Ext Data Fig 6e dose response, normalised (0 µM = 100) ([5]; 0.01 µM): 105.19 and 94.34 and 104.76 and 91.8 and 114.493 and 94.2029 | Ext Data Fig 6e dose response, normalised (0 µM = 100) ([5]; 0.02 µM): 94.81 and 103.77 and 95.24 and 103.28 and 113.043 and 95.6522 | Ext Data Fig 6e dose response, normalised (0 µM = 100) ([5]; 0.04 µM): 90.91 and 75.47 and 93.65 and 80.33 and 105.797 and 88.4058 | Ext Data Fig 6e dose response, normalised (0 µM = 100) ([5]; 0.08 µM): 79.22 and 86.79 and 63.49 and 63.93 and 86.9565 and 85.5072 | Ext Data Fig 6e dose response, normalised (0 µM = 100) ([5]; 5 µM): 0 | pEC50 ([5]; Severe acute respiratory syndrome coronavirus 2, Vero, 144 h, read-out: EC50 Replicate 1): 6.33 | pEC50 ([5]; Severe acute respiratory syndrome coronavirus 2, Vero, 144 h, read-out: EC50 Replicate 2): 6.48 | pEC50 ([5]; Severe acute respiratory syndrome coronavirus 2, Vero, 144 h, read-out: EC50 Replicate 3): 6.56 | pEC50 ([5]; Severe acute respiratory syndrome coronavirus 2, Vero, read-out: Antiviral EC50 (plaque assay)): 6.44 | pEC50 ([5]; Severe acute respiratory syndrome coronavirus 2, Vero, read-out: Antiviral EC50 (plaque assay) with Pgp inhibitor): 6.54 | pEC50 ([5]; read-out: EC50 Replicate 1): 6.43 | pEC50 ([5]; read-out: EC50 Replicate 2): 6.63 | pEC50 ([5]; read-out: EC50 Replicate 3): 6.60 | antiviral activity (lung viral burden), mild model [6]: antiviral efficacy in inhibiting P2 virus replication, comparable to that observed with WEHI-P8; also recorded: cannot be further enhanced by concurrent ritonavir co-treatment | antiviral efficacy (lung viral burden), mild model, treatment after infection ([6]; 150 mg/kg): did not change the antiviral efficacy | Log2 Fold change IL-10 [7]: -6.27 | Macrophages [7]: 10.22 and 12.4 and 14.7 and 14.8 and 13 and 14.2 and 15.1 and 11.5 | reduction of viral burdens, severe model [7]: more effective than PLT at reducing viral burdens | weight loss, severe model [7]: rescuing mice from weight loss | lung H&E histology, severe model ([7]; 100 mg/kg): only mild inflammation | lung IHC immune cell subsets, severe model ([7]; 100 mg/kg): significantly reduce the numbers of macrophages and neutrophils | lung cytokine and chemokine profiling, severe model ([7]; 100 mg/kg): significantly reduce the levels of a wider range of pro-inflammatory cytokines and chemokines | efficacy of pre-infection regimen versus treatment after infection ([7]; 150 mg/kg): no more effective than initiating treatment after infection; also recorded: did not confer a significant benefit compared to post-infection treatment initiation | lung H&E histology, severe model ([7]; 150 mg/kg): minimal to unremarkable histological changes | lung IHC immune cell subsets, severe model ([7]; 150 mg/kg): also reduced the number of T cells | gut inflammation [8]: could not be rescued | lung H&E pathology at 1 month, PASC model [8]: reduced signs of haemorrhage and immune cell infiltrates | neuroinflammation, microglial activation (IBA-1) [8]: significantly reduced | right ventricle area [8]: no significant differences between vehicle-treated or antiviral-treated groups | infection-induced weight loss, PASC model ([8]; 150 mg/kg): effectively prevented infection-induced weight loss | survival of acute phase, PASC model ([8]; 150 mg/kg): all treated animals survived the acute phase of infection | NORT exploratory behaviour / preference for the novel object [9]: significantly higher preference for the novel object | NORT impairment in females [9]: partially mitigated | overall distance travelled, infected females [9]: rescued by WEHI-P8 treatment | recognition index [9]: did not reveal significant sex- or drug dependent differences | Recognition Index (females) ([9]; 150 mg/kg): 0.5 and 0.9 and 0.57 and 0.7 | Recognition Index (males) ([9]; 150 mg/kg): 0.8 and 0.529 and 0.7 | CYP1A2 % inhibition at 20 µM [10]: No measurable inhibition | CYP2B6 % inhibition at 20 µM [11]: No measurable inhibition | CYP2C8 % inhibition at 20 µM [12]: No measurable inhibition | CYP2C19 % inhibition at 20 µM [13]: No measurable inhibition | AUC(0-inf) [14]: ~108 µM·h | AUC(0-t) [14]: 72.3 µM·h | Cmax [14]: 7.07 µM | Tmax [14]: 1 h | half-life ([14]; Apparent t1/2): 840 min | solubility kinetic ([15]; pH 2, aqueous buffer): > 320 µM | solubility kinetic ([15]; pH 6.5, aqueous buffer): 160 to 320 µM (≈ 65.7 to 131 µg/mL) | chromatographic logD [16]: 3.8 | half-life [17]: 41.5 min | microsomal CLint [17]: 33.4 µL/min/mg | half-life [18]: 144 min | microsomal CLint [18]: 9.7 µL/min/mg | half-life [19]: 82.6 min | hepatocyte CLint [19]: 16.8 µL/min/1e6 cells | half-life [20]: 139 min | hepatocyte CLint [20]: 10 µL/min/1e6 cells | fraction unbound [21]: 0.062 | fraction unbound [22]: 0.153 | inhibition at 20 µM [23]: 26% | inhibition at 20 µM ([24]; pH 7.4, CYP3A4/5 % inhibition at 20 µM): 28% | pIC50 ([24]; pH 7.4, CYP3A4/5 IC50): < 4.70 | inhibition at 20 µM ([25]; Time dependent CYP3A4/5 % inhibition at 20 µM): 25% | pIC50 ([25]; Time dependent CYP3A4/5 IC50 + NADPH): < 4.70 | pIC50 ([25]; Time dependent CYP3A4/5 IC50 - NADPH): < 4.70 | pIC50 [26]: 5.27 | pIC50 [27]: < 4.70 | pIC50 [28]: < 4.70 | pIC50 [29]: < 4.70 | pIC50 [30]: < 4.70 | pIC50 [31]: < 4.70 | pIC50 [32]: 4.86
